Measured values as given in patent US12122802B2, “D-allose crystal and production method thereof” (MATSUTANI CHEMICAL INDUSTRY CO., LTD., priority 2019, dated 2024).
One block for each compound: values may come before it.

What was measured:
[1] = water content in crystals from weight loss on drying under reduced pressure at 70° C. for 18 hours; assay type: physicochemical; settings: hydrous D-allose crystals (purity 99.9%, water content 17.7%) dried under the named drying conditions
Description: (§1) In order to measure the water content in the crystals obtained by each of the drying methods, drying under reduced pressure under conditions at 70° C. for 18 hours was performed to calculate the water content in the crystals from the weight loss through the drying under reduced pressure. The repose angle was measured by the method described above to determine the degree of fluidity. The yield rate was calculated by the following expression. Yield rate (%)=(D/C)×100 [Expression 4]

[2] = repose angle measured by powder tester PT-E (fluidity of anhydrous D-allose crystals); assay type: physicochemical; settings: for Degree of fluidity: drying tests of Table 6, evaluated from repose angle according to Table 4
Description: The fluidity of the anhydrous D-allose crystals obtained by drying the hydrous crystals obtained in each of Tests Nos. 1 to 12 with an evaporator (30° C., 20 hPa (abs), about 2 hours) as described above was evaluated by the repose angle measured by a powder tester PT-E (manufactured by Hosokawa Micron Corporation). Specifically, a sample was dropped and deposited on a disk, and the inclination angle was measured from three directions to obtain an average value. From the average value, the degree of fluidity was evaluated according to Table 1 in the Japanese Pharmacopoeia, 17th edition, Reference Information G2 physical property-related “Powder Fluidity” (same as the so-called Carr's fluidity index table, shown as Table 4).
as §1

cancer cells = settings: cited from earlier work
[3] = in vivo; cited from earlier work
active oxygen in cells = settings: cited from earlier work
[4] = particle size distribution by laser diffraction (Mastersizer 3000, dry dispersion unit Aero S); assay type: physicochemical; settings: average of 5 measurements, dispersion pressure 1.0 bar
Source text: The melting point (Tm) in the DSC refers to the melting start temperature of the endothermic peak obtained by DSC measurement (temperature at the extrapolated intersection of the base line and the maximum slope line of the endothermic peak), and the melting enthalpy (ΔH) refers to the area of the endothermic peak (ASTM D3418-15, Standard Test Method for Transition Temperatures and Enthalpies of Fusion and Crystallization of Polymers by Differential Scanning calorimetry). Further, in the present invention, the average particle size refers to the volume-based average particle size d[4,3], which is usually measured with a laser diffraction particle size distribution analyzer.
Next, the particle size distribution of the anhydrous D-allose crystals of the present invention was examined. Specifically, the anhydrous D-allose crystals obtained in the previous Test Nos. 1 to 5, 7 to 10 and 12, were subjected to measurement of particle size distribution under the measurement conditions shown in Table 7 using “Mastersizer 3000” and a “dry dispersion unit Aero S” manufactured by Malvern Instruments. More specifically, the measurement was repeated 5 times, and the average value of the 5 times measurements was used. No great variability was seen among the 5 times measurement values. The particle size distribution was expressed on a volume basis, and the volume-based average particle size d[4,3] and standard deviation σ were recorded. Also, the coefficient of variation CV=σ/d[4,3] was calculated in order to relatively evaluate the variation in the particle size distribution.

[5] = aspect ratio of crystals from microscopic picture (Digital microscope VHX-5000, 50x); assay type: physicochemical
Source text: The “anhydrous D-allose crystals” of the present invention have an extremely large average particle size as described above and are not in a fine needle form, having a characteristic aspect ratio of the crystal. In the present invention, the aspect ratio refers to the ratio of the long diameter to the short diameter of a crystal (short diameter: minimum length of lines passing through the center of gravity of the plane shape of a crystal, long diameter: maximum length of a crystal measured orthogonal to the short diameter). In the present specification, the aspect ratio in a numerical range from A to B (A and B: arbitrary numbers) means that all of the aspect ratios of a specified number (preferably at least 10, for example 10) of crystal particles randomly selected are within the numerical range. Example of random selection of crystal particles includes a method comprising taking a microscopic picture of crystals at 20× to 50× magnification and, from the crystals on the diagonal line drawn from the upper left to the lower right of the microscopic picture taken, selecting 10 crystals with a full body shown in order from the upper left on the diagonal line. Specifically, the aspect ratio is preferably 1.0 to 10.0, more preferably 2.0 to 8.0, still more preferably 2.0 to 7.0. Next, the aspect ratio of the anhydrous D-allose crystals of the present invention was examined. Specifically, a microscopic picture of each of the anhydrous D-allose crystals obtained in the previous Test Nos. 1 to 5, 7 to 10 and 12 were taken using “Digital microscope VHX-5000” manufactured by KEYENCE Corporation (50×magnification). Among the crystals on the diagonal line drawn from the upper left to the lower right of the microscopic picture taken, 10 crystals with a full picture shown were selected in order from the upper left and then the long diameter and the short diameter of each crystal were measured for calculation of the aspect ratio (Long diameter/Short diameter, wherein short diameter refers to minimum length of lines passing through the center of gravity of the plane shape of a crystal, and long diameter refers to maximum length of a crystal measured orthogonal to the short diameter). The minimum value of the aspect ratio was 1.1 and the maximum value was 9.6 (Table 9).

[6] = drying tests of Table 6, crystals after the named drying conditions

SMILES: O=C[C@H](O)[C@H](O)[C@H](O)[C@H](O)CO [Conductive heat transfer drying at 40° C.] [D-allose]
Water content (%) after drying [1]: 0.13% | Repose angle (degrees) [2, 6]: 41.3 degrees | Degree of fluidity [2]: Passable (41~45)

SMILES: O=C[C@H](O)[C@H](O)[C@H](O)[C@H](O)CO [Conductive heat transfer drying at 50° C.] [D-allose]
Water content (%) after drying [1]: 0.099% | Repose angle (degrees) [2, 6]: 42 degrees | Degree of fluidity [2]: Passable (41~45)

SMILES: O=C[C@H](O)[C@H](O)[C@H](O)[C@H](O)CO [Conductive heat transfer drying at 60° C.] [D-allose]
Water content (%) after drying [1]: 0.18% | Repose angle (degrees) [2, 6]: 41.7 degrees | Degree of fluidity [2]: Passable (41~45)

SMILES: O=C[C@H](O)[C@H](O)[C@H](O)[C@H](O)CO [Conductive heat transfer drying at 70° C.] [D-allose]
Water content (%) after drying [1]: 0.105% | Repose angle (degrees) [2, 6]: 44 degrees | Degree of fluidity [2]: Passable (41~45)

SMILES: O=C[C@H](O)[C@H](O)[C@H](O)[C@H](O)CO [Convection heat transfer drying at 40° C., Air supply: 3900 ] [D-allose]
Water content (%) after drying [1]: 0.14% | Repose angle (degrees) [2, 6]: 41.3 degrees | Degree of fluidity [2]: Passable (41~45)

SMILES: O=C[C@H](O)[C@H](O)[C@H](O)[C@H](O)CO [Convection heat transfer drying at 40° C., Air supply: 6000 ] [D-allose]
Water content (%) after drying [1]: 0.13% | Repose angle (degrees) [2, 6]: 41.7 degrees | Degree of fluidity [2]: Passable (41~45)

SMILES: O=C[C@H](O)[C@H](O)[C@H](O)[C@H](O)CO [D-allose]
effect on growth of cancer cells (cancer cells): effect for suppressing growth of cancer cells | effect on increase in blood pressure [3]: effect for suppressing an increase in blood pressure | effect on generation of active oxygen in cells (active oxygen in cells): effect for suppressing generation of active oxygen in cells

Continued, values first:

Water content (%) after drying [1]: 0.13% | Repose angle (degrees) [2, 6]: 42 degrees | Degree of fluidity [2]: Passable (41~45)
SMILES: O=C[C@H](O)[C@H](O)[C@H](O)[C@H](O)CO [Convection heat transfer drying at 50° C., Air supply: 4700 ] [D-allose]

d [4, 3] (volume-based average particle size) ([4]; listed as 8): 708 μm | Aspect ratio (Long diameter/Short diameter) ([5]; crystal ① of 10 selected, listed as 8): 3.5 | Aspect ratio (Long diameter/Short diameter) ([5]; crystal ② of 10 selected, listed as 8): 7.7 | Aspect ratio (Long diameter/Short diameter) ([5]; crystal ③ of 10 selected, listed as 8): 2.0 | Aspect ratio (Long diameter/Short diameter) ([5]; crystal ④ of 10 selected, listed as 8): 3.6 | Aspect ratio (Long diameter/Short diameter) ([5]; crystal ⑤ of 10 selected, listed as 8): 3.1 | Aspect ratio (Long diameter/Short diameter) ([5]; crystal ⑥ of 10 selected, listed as 8): 2.8 | Aspect ratio (Long diameter/Short diameter) ([5]; crystal ⑦ of 10 selected, listed as 8): 3.8 | Aspect ratio (Long diameter/Short diameter) ([5]; crystal ⑧ of 10 selected, listed as 8): 4.7 | Aspect ratio (Long diameter/Short diameter) ([5]; crystal ⑨ of 10 selected, listed as 8): 1.7 | Aspect ratio (Long diameter/Short diameter) ([5]; crystal ⑩ of 10 selected, listed as 8): 3.3 | Repose angle (degrees) ([2]; anhydrous crystals of Test Nos. 1 to 12, hydrous crystals dried with evaporator (30° C., 20 hPa (abs), about 2 hours), average of three directions, listed as 8): 41.7 degrees
SMILES: O=C[C@H](O)[C@H](O)[C@H](O)[C@H](O)CO [Test No. 8, D-allose]

d [4, 3] (volume-based average particle size) ([4]; listed as 9): 600 μm | Aspect ratio (Long diameter/Short diameter) ([5]; crystal ① of 10 selected, listed as 9): 6.2 | Aspect ratio (Long diameter/Short diameter) ([5]; crystal ② of 10 selected, listed as 9): 4.3 | Aspect ratio (Long diameter/Short diameter) ([5]; crystal ③ of 10 selected, listed as 9): 5.7 | Aspect ratio (Long diameter/Short diameter) ([5]; crystal ④ of 10 selected, listed as 9): 3.0 | Aspect ratio (Long diameter/Short diameter) ([5]; crystal ⑤ of 10 selected, listed as 9): 3.5 | Aspect ratio (Long diameter/Short diameter) ([5]; crystal ⑥ of 10 selected, listed as 9): 5.9 | Aspect ratio (Long diameter/Short diameter) ([5]; crystal ⑦ of 10 selected, listed as 9): 4.6 | Aspect ratio (Long diameter/Short diameter) ([5]; crystal ⑧ of 10 selected, listed as 9): 2.6 | Aspect ratio (Long diameter/Short diameter) ([5]; crystal ⑨ of 10 selected, listed as 9): 3.6 | Aspect ratio (Long diameter/Short diameter) ([5]; crystal ⑩ of 10 selected, listed as 9): 1.9 | Repose angle (degrees) ([2]; anhydrous crystals of Test Nos. 1 to 12, hydrous crystals dried with evaporator (30° C., 20 hPa (abs), about 2 hours), average of three directions, listed as 9): 41.0 degrees
SMILES: O=C[C@H](O)[C@H](O)[C@H](O)[C@H](O)CO [Test No. 9, D-allose]

d [4, 3] (volume-based average particle size) ([4]; listed as 10): 492 μm | Aspect ratio (Long diameter/Short diameter) ([5]; crystal ① of 10 selected, listed as 10): 1.6 | Aspect ratio (Long diameter/Short diameter) ([5]; crystal ② of 10 selected, listed as 10): 3.9 | Aspect ratio (Long diameter/Short diameter) ([5]; crystal ③ of 10 selected, listed as 10): 5.6 | Aspect ratio (Long diameter/Short diameter) ([5]; crystal ④ of 10 selected, listed as 10): 2.1 | Aspect ratio (Long diameter/Short diameter) ([5]; crystal ⑤ of 10 selected, listed as 10): 4.0 | Aspect ratio (Long diameter/Short diameter) ([5]; crystal ⑥ of 10 selected, listed as 10): 9.6 | Aspect ratio (Long diameter/Short diameter) ([5]; crystal ⑦ of 10 selected, listed as 10): 2.3 | Aspect ratio (Long diameter/Short diameter) ([5]; crystal ⑧ of 10 selected, listed as 10): 3.3 | Aspect ratio (Long diameter/Short diameter) ([5]; crystal ⑨ of 10 selected, listed as 10): 4.6 | Aspect ratio (Long diameter/Short diameter) ([5]; crystal ⑩ of 10 selected, listed as 10): 5.4 | Repose angle (degrees) ([2]; anhydrous crystals of Test Nos. 1 to 12, hydrous crystals dried with evaporator (30° C., 20 hPa (abs), about 2 hours), average of three directions, listed as 10): 41.3 degrees
SMILES: O=C[C@H](O)[C@H](O)[C@H](O)[C@H](O)CO [Test No. 10, D-allose]

d [4, 3] (volume-based average particle size) ([4]; listed as 12): 333 μm | Aspect ratio (Long diameter/Short diameter) ([5]; crystal ① of 10 selected, listed as 12): 3.1 | Aspect ratio (Long diameter/Short diameter) ([5]; crystal ② of 10 selected, listed as 12): 3.3 | Aspect ratio (Long diameter/Short diameter) ([5]; crystal ③ of 10 selected, listed as 12): 4.2 | Aspect ratio (Long diameter/Short diameter) ([5]; crystal ④ of 10 selected, listed as 12): 3.8 | Aspect ratio (Long diameter/Short diameter) ([5]; crystal ⑤ of 10 selected, listed as 12): 3.6 | Aspect ratio (Long diameter/Short diameter) ([5]; crystal ⑥ of 10 selected, listed as 12): 4.4 | Aspect ratio (Long diameter/Short diameter) ([5]; crystal ⑦ of 10 selected, listed as 12): 4.7 | Aspect ratio (Long diameter/Short diameter) ([5]; crystal ⑧ of 10 selected, listed as 12): 3.7 | Aspect ratio (Long diameter/Short diameter) ([5]; crystal ⑨ of 10 selected, listed as 12): 3.7 | Aspect ratio (Long diameter/Short diameter) ([5]; crystal ⑩ of 10 selected, listed as 12): 1.3 | Repose angle (degrees) ([2]; anhydrous crystals of Test Nos. 1 to 12, hydrous crystals dried with evaporator (30° C., 20 hPa (abs), about 2 hours), average of three directions, listed as 12): 41.3 degrees
SMILES: O=C[C@H](O)[C@H](O)[C@H](O)[C@H](O)CO [Test No. 12, D-allose]

Water content (%) after drying [1]: 0.052% | Repose angle (degrees) [2, 6]: 45.7 degrees | Degree of fluidity [2]: Passable (41~45)
SMILES: O=C[C@H](O)[C@H](O)[C@H](O)[C@H](O)CO [Ultra-low humidity drying (20 to 24° C.), D-allose]
